This note sets out measurements from ChEMBL document CHEMBL5727172, “Inhibitors of hepatitis C virus” (2019).

Where “and” joins values, the source holds several entries; their conditions need not be identical. Equal values may be shown once.

In general, Ki refers to the dissociation constant of the complex between target and ligand, obtained from inhibition or displacement.

The nature of this assay: The internally quenched fluorogenic depsipeptide substrate Ac-DED(Edans)-EEAbuΨ[COO]ASK(Dabcyl)-NH2 and a synthetic peptide containing the hydrophobic core residues of the NS4A protein cofactor ([…]; NS4A peptide) were obtained from Anaspec, Inc. (San Jose, Calif.). Other chemicals and biochemicals were of reagent grade or better and were purchased from standard suppliers.Reactions were run at room temperature in buffer consisting of 50 mM HEPES, 40% glycerol, 0.05% Triton X-100, 10 mM DTT, and 10% DMSO. The final assay solutions contained 50 pM NS3 genotype 1 b protease or 200 pM genotype 3a protease, 20 μM NS4A peptide, and 4 μM substrate (genotype 1b) or 2 μM substrate (genotype 3a). Inhibitor concentrations varied from 100 nM to 5 pM in 3-fold dilutions, and no-inhibitor controls were included.Compound dilutions were made in DMSO at 20× final concentration. Reaction mixtures were prepared in 96-well assay plates. A solution of enzyme and NS4A peptide in assay buffer (25 μL volume with both reagents at 4× final concentration) was mixed with 45 μL assay buffer and 5 μL of either inhibitor or DMSO, and pre-incubated at room temperature for 1 hour. The reaction was started by addition of 25 μL substrate solution at 4× final concentration. […].

Take `C=CCCC[C@@H]1CCCC1(OC(=O)N[C@H](C(=O)N1C[C@H](Oc2nc3cc(OC)ccc3nc2Cl)[C@@H](CC)[C@H]1C(=O)OC(C)(C)C)C(C)(C)C)C(F)(F)F` (some centres not stated): the Ki was 0.59 nM and 0.52 nM.

In the case of `C=CCC[C@@H]1C[C@H]1OC(=O)N[C@H](C(=O)N1C[C@H](Oc2nc3cc(OC)ccc3nc2C(F)(F)C=C)[C@@H](C)[C@H]1C(=O)OC(C)(C)C)C(C)(C)C`, the inhibition constant Ki was 0.05 nM and 0.19 nM.
